Test results: patent publication US20220105119A1, “DELIVERY OF AEROSOLIZED MICROMOLAR COMPOSITION CONCENTRATIONS” (Amcyte Pharma Inc., priority 2020, published 2022)
Values joined by “and” are separate entries in the source; they are usually repeats but may differ in a detail not shown here. Equal values may be shown once. Read-outs that look alike come from different tables or passages of the source.

Experiments:
SARS CoV 2 [1] = format: cell-based
[2] = Related substances by HPLC after 1 week at 50° C.; format: physicochemical; conditions: formulations after 1 week at 50° C., drug substance lot as used
From the text: HPLC method used renders chromatograms like the one depicted in FIG. 1 for drug substance and drug product. […] The rest of the peaks may be attributed to related substances. Related substances are substances structurally similar to the drug substance. Some of them come from synthesis impurities and are not increased during shelf life because they cannot form from degradation of the drug substance. Others are degradation products. […] (an extremely high stress condition for an MDI).

SARS CoV 2 [3] = conditions: cited from earlier work
[4] = calculated
[5] = test system: flaviviruses (yellow fever virus, West Nile virus, dengue virus, Japanese encephalitis virus, tick-borne encephalitis virus); conditions: other viruses; cited from earlier work
[6] = cited from earlier work; for Maximum Plasma Concentration: single oral dose; for Time elapsed to reach maximum concentration: after ingestion
[7] = in vivo; cited from earlier work
[8] = Ali 2011; cited from earlier work

Ivermectin
IC50 as mass concentration (SARS CoV 2 [1]): 1.7 µg/mL
Related substance RRT 1.42 ([2]; alkaline degradation product): 2.9 % total HPLC area
Related substance RRT 0.39 [2]: 0.3 % total HPLC area
Related substance RRT 0.40 [2]: 0.3 % total HPLC area
Related substance RRT 0.46 [2]: 0.5 % total HPLC area
Related substance RRT 0.78 [2]: 0.1 % total HPLC area
Related substance RRT 1.52 [2]: 0.7 % total HPLC area
IC50 (SARS CoV 2 [3]; Vero cells culture, read-out: IC50, SARS CoV 2 replication): 2000 nM and ~2000 nM
reduction in viral RNA in reference to placebo (SARS CoV 2 [3]; at 5 μM, 48 hours after one single application): 5,000 fold
viral RNA reduction (SARS CoV 2 [3]; at a concentration of (equivalent to ca. 4.4 μg/mL)): ca. 5,000 times
concentration in nasal airway surface liquid ([4]; 100 μg per nostril in a 50-μL shot, liquid volume 50-375 μL): 533 µg/mL
immediate concentration in saliva ([4]; one 50-μL shot containing 100 μg, 0.8 mL saliva): 125 µg/mL
concentration range of antiviral activity [5]: 0.003 to 10 µM
Maximum Plasma Concentration ([6]; 150 μg/kg (fasted), Baraka 1996): aprox. 55 ng/mL
Maximum Plasma Concentration ([6]; 200 μg/kg (fed), Schulz 2018): 40.1 ng/mL
Maximum Plasma Concentration ([6]; 600 μg/kg (children, fed), Schulz 2019): 66.1 ng/mL
Maximum Plasma Concentration ([6]; 30 mg (fed), Guzzo 2002): 260.5 ng/mL
Maximum Plasma Concentration ([6]; 60 mg (fasted), Guzzo 2002): 186.2 ng/mL and 165.2 to 186.2 ng/mL
Maximum Plasma Concentration ([6]; 90 mg (fasted), Guzzo 2002): 158.1 ng/mL
Maximum Plasma Concentration ([6]; 120 mg (fasted), Guzzo 2002): 247.8 ng/mL
Time elapsed to reach maximum concentration ([6]; adults): 4 to 5 h
Time elapsed to reach maximum concentration ([6]; children): 6 to 7 h
Oral bioavailability [7]: 40-50%
forced degradation studies [8]: susceptible to oxidation and hydrolysis
